Source: patent US11534434B2 (Karuna Therapeutics, Inc., priority 2019, dated 2022)

Legend:
human M1 mAChR = molecular target: T1, human M1 mAChR (Homo sapiens, UniProt P11229); assay: Whole-cell functional agonist activity, FLIPR Ca2+ release, U2OS-based human M1 mAChR stable cell line; conditions: for EC50: agonist, FLIPR Ca2+ release, U2OS human M1 cells; for Emax: top of curve, % activity vs MAX control ligand, FLIPR Ca2+
T1 construct: expressed in transfected cells
T1 sequence (P11229 1-460): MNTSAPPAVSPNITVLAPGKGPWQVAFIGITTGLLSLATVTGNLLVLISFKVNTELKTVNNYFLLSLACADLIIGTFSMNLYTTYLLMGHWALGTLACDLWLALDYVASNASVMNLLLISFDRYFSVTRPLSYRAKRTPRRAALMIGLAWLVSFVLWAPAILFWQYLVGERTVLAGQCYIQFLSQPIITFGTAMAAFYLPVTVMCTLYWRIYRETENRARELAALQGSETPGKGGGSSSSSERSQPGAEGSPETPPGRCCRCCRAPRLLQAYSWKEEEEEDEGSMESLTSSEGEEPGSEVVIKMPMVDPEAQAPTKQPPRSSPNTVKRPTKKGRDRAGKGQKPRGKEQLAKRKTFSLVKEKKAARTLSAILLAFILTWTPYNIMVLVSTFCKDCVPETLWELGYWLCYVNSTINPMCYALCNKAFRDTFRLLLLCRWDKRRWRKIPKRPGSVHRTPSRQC
Text: (§1) Whole-cell functional agonist activity in cells expressing recombinant human muscarinic receptor subtypes.
(§2) ThermoFisher's FLIPR™ (Fluorescence Imaging Plate Reader) was used to quantify Ca^2+ release, a functional effect associated with Gaq-coupled M1 and M5 mAChRs. CisBio's phospho-ERK (pERK) Thr202/Tyr204 was used to evaluate Gai/o-coupled M2 and M4 mAChRs responses.
One day before the assay, M1, M3, and M5 cells were thawed out and plated at 10,000 cells/well into black-walled, clear-bottom, Poly-D-lysine coated 384-well microplates and incubated at 37° C. and 5% CO2 in MEME+10% FBS+1× penicillin/streptomycin/glutamine, for the M1 and M3 cell lines and F-12+10% FBS+1× penicillin/streptomycin/glutamine for the M5 cell line. […] The M1 and M5 responses were analyzed using the CBIS data analysis suite (ChemInnovation, CA).
(§3) Percentage activity was calculated using the following formula: % Activity=100%×(mean RFU of test sample mean RFU of vehicle control)/(mean MAX RFU control ligand mean RFU of vehicle control) where RFU is relative fluorescence unit. The M2 and the M4 cells were thawed out one day before the assay and plated at 2,000 and 1,000 cells per well, respectively, in […] of DMEM/F12+10% FBS in ProxiPlate 384-well white-walled, white-bottom tissue culture-treated plates and incubated at 37° C. and 5% CO2 overnight. Before the assay, cells were serum-starved at 37° C. in 5% CO2 for 4 hours by replacing culture media with […] of F12 media with 8 mM HEPES. The pERK assay was run according to assay kit instructions with minor volume modifications outlined below.

human M2 mAChR = molecular target: T2, human M2 mAChR (Homo sapiens, UniProt P08172); assay: Whole-cell functional agonist activity, phospho-ERK (pERK), CHOK1-based human M2 mAChR stable cell line; conditions: for EC50: agonist, CHOK1 human M2 cells; for M2 Top (%): top of curve, % of min (DMSO) and max (10 mM Acetylcholine) responses
T2 construct: expressed in transfected cells
T2 sequence (P08172 1-466): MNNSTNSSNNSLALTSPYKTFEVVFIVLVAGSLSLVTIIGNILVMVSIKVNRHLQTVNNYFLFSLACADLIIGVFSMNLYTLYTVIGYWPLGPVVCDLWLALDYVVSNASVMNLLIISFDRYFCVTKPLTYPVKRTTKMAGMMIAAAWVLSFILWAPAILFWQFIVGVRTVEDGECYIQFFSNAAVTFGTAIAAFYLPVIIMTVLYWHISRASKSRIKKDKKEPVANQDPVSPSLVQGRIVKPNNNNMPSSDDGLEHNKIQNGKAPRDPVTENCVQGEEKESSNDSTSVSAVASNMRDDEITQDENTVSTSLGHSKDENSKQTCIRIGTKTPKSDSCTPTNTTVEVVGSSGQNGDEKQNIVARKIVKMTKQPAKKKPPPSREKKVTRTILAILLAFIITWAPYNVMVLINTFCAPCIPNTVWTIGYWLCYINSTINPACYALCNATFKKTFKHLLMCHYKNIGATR
Procedure: as §1, §2, §3
(§4) Compound addition was carried out by adding 3× compound solution in […] of media with 0.3% DMSO (made from a 10 mM compound stock solution in 100% DMSO) for 5 minutes before the reaction was terminated by adding […] lysis and blocking solution. Cells were left in the lysis solution for 30 minutes before […] of antibody (Eu and d2) solution was added for an additional 2-hour incubation while protected from light. The plates were then read on laser Pherastar using the TR-FRET protocol.

human M3 mAChR = molecular target: T3, human M3 mAChR (Homo sapiens, UniProt P20309); assay: Whole-cell functional agonist activity, FLIPR Ca2+ release, U2OS-based human M3 mAChR stable cell line; conditions: for EC50: agonist, FLIPR Ca2+ release, U2OS human M3 cells; for Emax: top of curve, % activity vs MAX control ligand, FLIPR Ca2+
T3 construct: expressed in transfected cells
T3 sequence (P20309 whole entry): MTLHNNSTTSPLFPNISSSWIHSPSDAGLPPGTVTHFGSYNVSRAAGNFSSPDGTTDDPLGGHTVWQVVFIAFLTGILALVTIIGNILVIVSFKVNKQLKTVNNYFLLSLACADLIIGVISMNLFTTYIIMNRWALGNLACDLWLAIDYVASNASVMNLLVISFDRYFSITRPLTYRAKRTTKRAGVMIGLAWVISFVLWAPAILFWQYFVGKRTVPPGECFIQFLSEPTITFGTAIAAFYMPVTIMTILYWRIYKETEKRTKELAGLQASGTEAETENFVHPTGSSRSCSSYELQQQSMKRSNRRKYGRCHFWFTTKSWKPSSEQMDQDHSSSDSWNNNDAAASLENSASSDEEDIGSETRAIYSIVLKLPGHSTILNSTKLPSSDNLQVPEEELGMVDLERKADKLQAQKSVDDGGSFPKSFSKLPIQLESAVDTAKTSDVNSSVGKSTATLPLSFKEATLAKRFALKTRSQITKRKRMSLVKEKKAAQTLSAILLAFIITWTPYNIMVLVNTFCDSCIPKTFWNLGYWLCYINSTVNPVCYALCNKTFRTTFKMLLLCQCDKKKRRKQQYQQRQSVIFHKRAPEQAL
Text: as §1, §2
One day before the assay, M1, M3, and M5 cells were thawed out and plated at 10,000 cells/well into black-walled, clear-bottom, Poly-D-lysine coated 384-well microplates and incubated at 37° C. and 5% CO2 in MEME+10% FBS+1× penicillin/streptomycin/glutamine, for the M1 and M3 cell lines and F-12+10% FBS+1× penicillin/streptomycin/glutamine for the M5 cell line. On the day of the test, the media was aspirated and replaced with […] fluo-4 dye loading buffer (1× dye, 1× additive A and 2.5 mM fresh probenecid in HBSS and 20 mM HEPES) and incubated at 37° C. and 5% CO2 for 45 minutes. After the incubation, cells were removed from the incubator, […] of HBSS and 20 mM HEPES was added for a total volume of […], and the cells were allowed to equilibrate at room temperature for 15 minutes in the dark before compounds were applied, by adding 4× compound solution in […] of HBSS, 0.4% DMSO and 20 mM HEPES buffer (made from a 10 mM compound stock solution in 100% DMSO), and responses were recorded for 2 minutes in FLIPR Tetra after compound administration. The M1 and M5 responses were analyzed using the CBIS data analysis suite (ChemInnovation, CA).
as §3

human M4 mAChR = molecular target: T4, human M4 mAChR (Homo sapiens, UniProt P08173); assay: Whole-cell functional agonist activity, phospho-ERK (pERK), CHOK1-based human M4 mAChR stable cell line; conditions: for EC50: agonist, CHOK1 human M4 cells; for M4 Top (%): top of curve, % of min (DMSO) and max (10 mM Acetylcholine) responses
T4 construct: expressed in transfected cells
T4 sequence (P08173 1-479): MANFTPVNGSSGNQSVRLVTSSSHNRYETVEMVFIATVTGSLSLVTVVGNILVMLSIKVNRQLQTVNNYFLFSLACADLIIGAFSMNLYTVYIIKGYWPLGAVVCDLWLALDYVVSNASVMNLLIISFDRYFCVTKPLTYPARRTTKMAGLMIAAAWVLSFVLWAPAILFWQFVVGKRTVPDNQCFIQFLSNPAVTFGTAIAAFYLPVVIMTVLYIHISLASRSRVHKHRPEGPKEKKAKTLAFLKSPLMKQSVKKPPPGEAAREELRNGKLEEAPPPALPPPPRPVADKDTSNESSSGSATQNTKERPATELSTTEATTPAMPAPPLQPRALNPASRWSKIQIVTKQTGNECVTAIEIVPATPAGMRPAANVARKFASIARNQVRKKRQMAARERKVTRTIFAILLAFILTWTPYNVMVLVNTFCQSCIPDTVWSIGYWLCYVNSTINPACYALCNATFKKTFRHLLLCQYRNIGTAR
Procedure: as §1, §2, §3, §4

| SMILES | EC50 (human M1 mAChR) [nM] | Emax (human M1 mAChR) [%] | EC50 (human M2 mAChR) [nM] | M2 Top (%) (human M2 mAChR) | EC50 (human M3 mAChR) [nM] | Emax (human M3 mAChR) [%] | EC50 (human M4 mAChR) [nM] | M4 Top (%) (human M4 mAChR) |
| --- | --- | --- | --- | --- | --- | --- | --- | --- |
| CN1CCC=C(c2nsnc2OCCCCCC(F)(F)F)C1 [Example 1, 3-(1-Methyl-1,2,5,6-tetrahydropyridin-3-yl)-4-((6,6,6-trifluorohexyl)oxy)-1,2,5-thiadiazole] | 3.7 | 90 | > 34 | 1 | > 10000 | 16 | 15.7 | 82 |
| CN1CCC=C(c2nsnc2OCCCCCC(F)F)C1 [Example 6, 3-((6,6-difluorohexyl)oxy)-4-(1-methyl-1,2,5,6-tetrahydropyridin-3-yl)-1,2,5-thiadiazole] | 2.5 | 94 | > 34 | 2 | > 10000 | 11 | 11 | 108 |
| CN1CCC=C(c2nsnc2OCCCCCCF)C1 [Example 7, 3-((6-Fluorohexyl)oxy)-4-(1-methyl-1,2,5,6-tetrahydropyridin-3-yl)-1,2,5-thiadiazole] | 3.1 | 93 | > 34 | 3 | > 10000 | 7 | 8.3 | 112 |
| CN1CCC=C(c2nsnc2OCCCCC(C)(F)F)C1 [Example 8, 3-((5,5-Difluorohexyl)oxy)-4-(1-methyl-1,2,5,6-tetrahydropyridin-3-yl)-1,2,5-thiadiazole] | 5.7 | 87 | > 34 | 0 | > 10000 | 7 | 12.6 | 48 |
| CCC(F)(F)CCCOc1nsnc1C1=CCCN(C)C1 [Example 9, 3-((4,4-Difluorohexyl)oxy)-4-(1-methyl-1,2,5,6-tetrahydropyridin-3-yl)-1,2,5-thiadiazole] | 28.4 | 46 | > 34 | 1 | > 10000 | 2 | > 34 | 5 |
| CCCCC(F)(F)COc1nsnc1C1=CCCN(C)C1 [Example 11, 3-((2,2-Difluorohexyl)oxy)-4-(1-methyl-1,2,5,6-tetrahydropyridin-3-yl)-1,2,5-thiadiazole] | 29 | 32 | > 34 | 0 | > 10000 | 3 | 374 | 62 |
